# How the values were obtained:
# [1] = target: T1, ABL1 (64-515) (Homo sapiens (Human), UniProt P00519); experiment: Radio ABL1 (64-515) assay (radiometric filter-binding); assay type: biochemical
# [2] = target: T1, ABL1 (64-515); experiment: Caliper ABL1 (64-515) assay (microfluidic mobility shift); assay type: biochemical
# T1 sequence (P00519 64-515): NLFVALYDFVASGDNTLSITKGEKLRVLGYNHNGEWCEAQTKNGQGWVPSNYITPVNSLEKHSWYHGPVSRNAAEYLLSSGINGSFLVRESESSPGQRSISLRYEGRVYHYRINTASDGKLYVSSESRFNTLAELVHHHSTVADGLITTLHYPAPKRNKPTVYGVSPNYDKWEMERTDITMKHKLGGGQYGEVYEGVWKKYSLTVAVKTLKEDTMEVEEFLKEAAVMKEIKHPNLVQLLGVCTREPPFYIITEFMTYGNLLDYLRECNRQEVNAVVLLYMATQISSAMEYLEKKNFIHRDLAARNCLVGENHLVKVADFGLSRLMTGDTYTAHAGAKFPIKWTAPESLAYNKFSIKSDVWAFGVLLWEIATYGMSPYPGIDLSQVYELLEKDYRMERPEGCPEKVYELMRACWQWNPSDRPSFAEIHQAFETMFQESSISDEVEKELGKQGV
IC50 [1] [nM],IC50 [2] [nM],IC50 ([2]; comparison of ortho substitution on the R3/R4 ring) [nM],SMILES
2,1.7,–,O=C(Nc1ccc(S(F)(F)(F)(F)F)cc1)c1cnc(N2CC[C@@H](O)C2)c(-c2cncc(F)c2)c1 [Example 277]
1.7,1.3,–,"Nc1ncc(-c2cc(C(=O)Nc3ccc(OC(F)(F)F)cc3)cnc2N2CC[C@@H](O)C2)cc1F [Example 241, (R)-6′-Amino-5′-fluoro-2-(3-hydroxypyrrolidin-1-yl)-N-(4-(trifluoromethoxy)phenyl)-[3,3′-bipyridine]-5-carboxamide]"
< 3,2.3,–,"CN[C@H]1CCN(c2ncc(C(=O)Nc3ccc(OC(F)(F)F)cc3)cc2-c2cncnc2)C1 [Example 102, (S)-6-(3-(Methylamino)pyrrolidin-1-yl)-5-(pyrimidin-5-yl)-N-(4-(trifluoromethoxy)phenyl)nicotinamide]"
< 3,0.4,–,"O=C(Nc1ccc(OC(F)(F)F)cc1)c1cnc(N2CC[C@@H](O)C2)c(-c2cnc(Cl)c(F)c2)c1 [Example 53, (R)-6′-Chloro-5′-fluoro-2-(3-hydroxypyrrolidin-1-yl)-N-(4-(trifluoromethoxy)phenyl)-[3,3′-bipyridine]-5-carboxamide]"
< 3,0.3,–,"O=C(Nc1ccc(OC(F)(F)F)cc1)c1cnc(N2CC[C@H](CO)C2)c(-c2cnc(Cl)c(F)c2)c1 [Example 89, (S)-6′-Chloro-5′-fluoro-2-(3-(hydroxymethyl)pyrrolidin-1-yl)-N-(4-(trifluoromethoxy)phenyl)-[3,3′-bipyridine]-5-carboxamide]"
4,2.1,–,"COC(=O)c1cc(F)cc(-c2cc(C(=O)Nc3ccc(OC(F)(F)F)cc3)cnc2N2CC[C@@H](O)C2)c1 [Example 62, (R)-Methyl 3-fluoro-5-(2-(3-hydroxypyrrolidin-1-yl)-5-((4-(trifluoromethoxy)phenyl)carbamoyl)pyridin-3-yl)benzoate]"
0.5,0.7,–,Nc1ncc(-c2cc(C(=O)Nc3ccc(OC(F)(F)Cl)cc3)cnc2N2CC[C@@H](O)C2)cc1F [Example 271]
3,1,–,"O=C(Nc1ccc(SC(F)(F)F)cc1)c1cnc(N2CC[C@H](CO)C2)c(-c2cncnc2)c1 [Example 189, (S)-6-(3-(Hydroxymethyl)pyrrolidin-1-yl)-5-(pyrimidin-5-yl)-N-(4-((trifluoromethyl)thio)phenyl)nicotinamide]"
3,2.6,–,"O=C(Nc1ccc(OC(F)(F)F)cc1)c1cnc(N2CCOCC2)c(-c2ccc(CO)nc2)c1 [Example 149, 6′-(Hydroxymethyl)-2-morpholino-N-(4-(trifluoromethoxy)phenyl)-[3,3′-bipyridine]-5-carboxamide]"
1,1.3,–,"O=C(Nc1ccc(OC(F)(F)Cl)cc1)c1cnc(N2C[C@H](CO)[C@@H](O)C2)c(-c2cncnc2)c1 (relative stereo) [Example 250, N-(4-(Chlorodifluoromethoxy)phenyl)-6-(trans-3-hydroxy-4-(hydroxymethyl)pyrrolidin-1-yl)-5-(pyrimidin-5-yl)nicotinamide]"
< 3,1.2,–,"O=C(Nc1ccc(OC(F)(F)F)cc1)c1ccc(N2C[C@H](O)[C@@H](O)C2)c(-c2cncnc2)c1 [Example 7, 4-((3S,4S)-3,4-Dihydroxypyrrolidin-1-yl)-3-(pyrimidin-5-yl)-N-(4-(trifluoromethoxy)phenyl)benzamide]"
0.6,1.2,–,"NCC1CN(c2ncc(C(=O)Nc3ccc(OC(F)(F)F)cc3)cc2-c2cncc(F)c2)CC1O (centres unmarked) [Example 237, 2-(3-(Aminomethyl)-4-hydroxypyrrolidin-1-yl)-5′-fluoro-N-(4-(trifluoromethoxy)phenyl)-[3,3′-bipyridine]-5-carboxamide]"
10,1.3,–,"O=C(Nc1ccc(OC(F)(F)C(F)(F)F)cc1)c1cnc(N2CC[C@@H](O)C2)c(-c2cncc(F)c2)c1 [Example 221, (R)-5′-Fluoro-2-(3-hydroxypyrrolidin-1-yl)-N-(4-(perfluoroethoxy)phenyl)-[3,3′-bipyridine]-5-carboxamide]"
6,0.7,–,"Cc1ncc(-c2cc(C(=O)Nc3ccc(OC(F)(F)F)cc3)cnc2N2CC[C@H](CO)C2)cc1F [Example 87, (S)-5′-Fluoro-2-(3-(hydroxymethyl)pyrrolidin-1-yl)-6′-methyl-N-(4-(trifluoromethoxy)phenyl)-[3,3′-bipyridine]-5-carboxamide]"
1,0.3,–,"NC[C@@H]1CCN(c2ncc(C(=O)Nc3ccc(OC(F)(F)Cl)cc3)cc2-c2cncnc2)C1 [Example 177, (S)-6-(3-(Aminomethyl)pyrrolidin-1-yl)-N-(4-(chlorodifluoromethoxy)phenyl)-5-(pyrimidin-5-yl)nicotinamide]"
4,1.1,–,"CC(C)(O)C1CN(c2ncc(C(=O)Nc3ccc(OC(F)(F)F)cc3)cc2-c2cccnc2)C1 [Example 143, 2-(3-(2-Hydroxypropan-2-yl)azetidin-1-yl)-N-(4-(trifluoromethoxy)phenyl)-[3,3′-bipyridine]-5-carboxamide]"
< 3,1.4,–,"Cc1ncc(-c2cc(C(=O)Nc3ccc(OC(F)(F)F)cc3)cnc2N2CC(C)(O)C2)cc1F [Example 133, 5′-Fluoro-2-(3-hydroxy-3-methylazetidin-1-yl)-6′-methyl-N-(4-(trifluoromethoxy)phenyl)-[3,3′-bipyridine]-5-carboxamide]"

IC50 [1] [nM],IC50 [2] [nM],IC50 ([2]; comparison of ortho substitution on the R3/R4 ring) [nM],SMILES
< 3,0.8,–,"O=C(Nc1ccc(OC(F)(F)F)cc1)c1cnc(N2CC[C@@H](O)C2)c(-c2ccc(CO)nc2)c1 [Example 42, (R)-6′-(Hydroxymethyl)-2-(3-hydroxypyrrolidin-1-yl)-N-(4-(trifluoromethoxy)phenyl)-[3,3′-bipyridine]-5-carboxamide]"
2.7,1.1,–,O=C(Nc1ccc(OC(F)(F)Cl)cc1)c1cnc(N2CC(O)C2)c(-c2cncnc2)c1 [Example 258]
5,1.4,–,"CN(CCO)c1ncc(C(=O)Nc2ccc(SC(F)(F)F)cc2)cc1-c1cncc(C#N)c1 [Example 194, 5′-Cyano-2-((2-hydroxyethyl)(methyl)amino)-N-(4-((trifluoromethyl)thio)phenyl)-[3,3′-bipyridine]-5-carboxamide]"
4,0.4,–,"Cc1ncc(-c2cc(C(=O)Nc3ccc(OC(F)(F)F)cc3)cnc2N2CC(CO)C2)cc1F [Example 140, 5′-Fluoro-2-(3-(hydroxymethyl)azetidin-1-yl)-6′-methyl-N-(4-(trifluoromethoxy)phenyl)-[3,3′-bipyridine]-5-carboxamide]"
< 0.1,0.4,–,N#Cc1ccncc1-c1cc(C(=O)Nc2ccc(OC(F)(F)Cl)cc2)cnc1N1CC[C@@H](O)C1 [Example 274]
6,5.3,–,CN(C)C1CN(c2ncc(C(=O)Nc3ccc(OC(F)(F)F)cc3)cc2-c2cncnc2)C1 [Example 232]
3,8,–,"O=C(Nc1ccc(SC(F)(F)F)nc1)c1cnc(N2CC[C@@H](O)C2)c(-c2cncnc2)c1 [Example 279, (R)-6-(3-Hydroxypyrrolidin-1-yl)-5-(pyrimidin-5-yl)-N-(6-((trifluoromethyl)thio)pyridin-3-yl)nicotinamide]"
4,1.4,–,"Nc1ncc(-c2cc(C(=O)Nc3ccc(OC(F)(F)F)cc3)cnc2N2CC[C@@H](O)C2)cn1 [Example 38, (R)-5-(2-Aminopyrimidin-5-yl)-6-(3-hydroxypyrrolidin-1-yl)-N-(4-(trifluoromethoxy)phenyl)nicotinamide]"
< 3,1,–,"CN(CCO)c1ncc(C(=O)Nc2ccc(OC(F)(F)F)cc2)cc1-c1cncc(F)c1 [Example 154, 5′-Fluoro-2-((2-hydroxyethyl)(methyl)amino)-N-(4-(trifluoromethoxy)phenyl)-[3,3′-bipyridine]-5-carboxamide]"
2,0.4,–,O=C(Nc1ccc(OC(F)(F)Cl)cc1)c1cnc(N2CCNC3(CC3)C2)c(-c2cncnc2)c1 [Example 256]
4,2.6,–,"CN(C)C1CN(c2ncc(C(=O)Nc3ccc(OC(F)(F)F)cc3)cc2-c2cncc(F)c2)C1 [Example 239, 2-(3-(Dimethylamino)azetidin-1-yl)-5′-fluoro-N-(4-(trifluoromethoxy)phenyl)-[3,3′-bipyridine]-5-carboxamide]"
7,0.8,–,"Cc1ccc(-c2cc(C(=O)Nc3ccc(OC(F)(F)F)cc3)cnc2N2CC(CO)C2)cn1 [Example 138, 2-(3-(Hydroxymethyl)azetidin-1-yl)-6′-methyl-N-(4-(trifluoromethoxy)phenyl)-[3,3′-bipyridine]-5-carboxamide]"
3,1.1,–,"O=C(Nc1ccc(OC(F)(F)F)cc1)c1cnc(N2CC[C@@H](O)C2)c(-c2cncc(Cl)c2)c1 [Example 50, (R)-5′-Chloro-2-(3-hydroxypyrrolidin-1-yl)-N-(4-(trifluoromethoxy)phenyl)-[3,3′-bipyridine]-5-carboxamide]"
2,1.4,–,"N#Cc1ccncc1-c1cc(C(=O)Nc2ccc(OC(F)(F)F)cc2)cnc1N1CC[C@@H](O)C1 [Example 240, (R)-4′-Cyano-2-(3-hydroxypyrrolidin-1-yl)-N-(4-(trifluoromethoxy)phenyl)-[3,3′-bipyridine]-5-carboxamide]"
–,0.5,–,"N#Cc1ncc(F)cc1-c1cc(C(=O)Nc2ccc(OC(F)(F)Cl)cc2)cnc1N1CC[C@@H](O)C1 [Example 292, (R)—N-(4-(Chlorodifluoromethoxy)phenyl)-2′-cyano-5′-fluoro-2-(3-hydroxypyrrolidin-1-yl)-[3,3′-bipyridine]-5-carboxamide]"
–,0.3,–,"COc1ncc(-c2cc(C(=O)Nc3ccc(OC(F)(F)Cl)cc3)cnc2N2CC[C@@H](O)C2)cc1C#N [Example 299, (R)—N-(4-(Chlorodifluoromethoxy)phenyl)-5′-cyano-2-(3-hydroxypyrrolidin-1-yl)-6′-methoxy-[3,3′-bipyridine]-5-carboxamide]"
–,–,850,O=C(Nc1ccc(OC(F)(F)F)cc1Cl)c1cnc(N2CC[C@@H](O)C2)c(-c2cncnc2)c1
